Earlier results, collected in patent US6919088B2 (priority 2002, dated 2005).

How the values were obtained:
[1] = test system: arachadonic acid in tissue lipids; details: rats, dietary triacylglycerols
[2] = test system: decorin and procollagen-I; details: in vitro testing compared to retinoic acid

CCCCCCCCCCC/C=C\CCCCC(=O)O [petroselinic acid, cis-6-octadecenoic acid]
levels of arachadonic acid in tissue lipids [1]: reduce the levels of arachadonic acid
upregulating and increasing synthesis of decorin and procollagen-I [2]: more effective than retinoic acid
